The text below walks through data of US11628226B2, “Methods and gene therapy constructs for treating GM2 gangliosidoses” (priority 2016, dated 2023).

Assay [1] concerns Sandhoff mouse (hexb-/-). The assay can be described thus: Survival of SD mice (Kaplan-Meier, humane end point). Type of assay: in vivo. To be noted: for Survival in conjunction with HEXB-HEXA: AAV9-HEXB-HEXA neonatal day one 2×10^13 vg/kg plus daily oral drug from eight weeks; for Survival time: untreated SD mice 110 days; for Mice that did not reach humane end point after 210 days: drug in conjunction with HEXB-HEXA, n=6 per group. The procedure: The hexb−/− experimental mice were obtained from Jackson Laboratories. From these, a colony was established at Queen's University through heterozygous breeding (hexb+/−). Genotyping of the mice was carried out via PCR amplification from animal ear punches taken at the time of weaning (three weeks of age). Experimental animals were obtained through mutant cross breeding (hexb−/−). The mice were maintained on a 12-hour light cycle from 7 am to 7 pm. All experimental protocols and procedures were performed in accordance with and were approved by the Queen's University Animal Care Committee.
Neonatal mice were intravenously injected with the ssAAV/HEXB-HEXA vector or a vehicle injection through the superficial temporal vein on day 0-1. Each treated mouse received an injection of 2.04×10^10 vg/mouse in a volume of 50 uL PBS with […] NaCl and 5% sorbitol (vehicle). Untreated mice received an injection of 50 uL vehicle. During the injections, the dames were removed from the pups and placed in a clean cage. The cage of the pups alone was placed on a heating pad to keep them warm. Pups were then removed from the cage, one at a time, and placed over an LED light to aid in visualization of the superficial temporal vein. The pups received the injection using a 30 gauge needle and 1 mL syringe. After the injection, pressure was applied to the mouse using sterile gauze and the pup was returned to the home cage. The dame was returned to the cage with the pups following the completion of all injections. Pups were then monitored closely for several days to ensure survival.
Starting at eight weeks of age, each drug treatment cohort received pyrimethamine, indomethacin, or ITF2357 at a dose of 1 mg/kg/day. Drug treatments were administered in the morning of the 12-hour light cycle via oral gavage using a 22 g curved feeding needle from Kent Scientific. ITF2357 was dissolved in ddH2O by heating to 85° C. while stirring for 1 hour. Indomethacin and pyrimethamine were each dissolved in 0.5% methylcellulose by heating to 80° C. while stirring for 1 hour. Each of these was stored at 4° C. for up to 2 weeks.
(§1) Animal tissues were collected at designated 16 week end points and long term humane end points. The humane end points were determined by either […] loss of peak body weight or an inability to right itself in 10 seconds. Euthanization was carried out via CO2 asphyxiation followed by cardiac puncture and perfusion with 10 mL of chilled PBS. For biochemical analysis sections of the forebrain, midbrain, hindbrain, cervical spinal cord, and lumbar spinal cord were collected along with the heart, lungs, liver, spleen, kidney, gonads, and a section skeletal muscle. These were all frozen immediately for further processing. For histological purposes, sections of the midbrain and liver were collected, fixed in 4% paraformaldehyde overnight and then immersed in 100% ethanol until sent to the Queen's University Histology department for paraffin embedding. Additional midbrain sections were collected from a number of mice and frozen in liquid nitrogen. Blood was collected via the saphenous vein on a monthly basis starting at 8 weeks and continuing until the humane end point. Additionally, blood was collected via the cardiac puncture during euthanization. Serum was separated from blood samples by centrifugation of 4000 rpm for 10 min and frozen immediately for storage.
To evaluate the efficacy of a single intravenous […] of rAAV9 expressing the human HEXA and HEXB cDNA in ameliorating the biochemical and neurological phenotype in SD, AAV9-HEXB-HEXA or a vehicle control was administered to postnatal day one neonates at a relatively low dose of 2×10^13 vg/kg via superficial temporal vein. Mice were all followed until they reached 32 weeks of age, or a humane end point.
Survival was analyzed with the log-rank (Mantel-Cox) test. […] This relationship is shown by the Kaplan-Meier plots in FIG. 3. […]

Assay [2] has as its system Sandhoff mouse (hexb-/-). In words: Open field test of motor activity in SD mice. The assay is classed as in vivo. To be noted: HEXB-HEXA treated SD mice plus drug, week 24. The procedure:
Behavioural testing was carried out on a bi-weekly basis from the age of eight weeks until each end point. The behavioural testing was done in three different parts and always assessed in the morning of the 12 hour light cycle.
Open Field Test: Used to assess overall locomotion and activity levels. The mouse was placed in a 40 cm×40 cm arena with walls. Time moving, rearing activity and the distance travelled were all electronically recorded by an ActiMot system. Speed was calculated by dividing the distance travelled by the time moving. Each mouse underwent one five minute trial.
To determine if the administration of AAV9-HexB-HexA improved motor activity in the neonatally treated SD mice, distance travelled in the 5-minute open-field test was analyzed. Testing began at eight weeks, when motor deterioration in SD mice begins to show and continued on a bi-weekly basis to 24 weeks. […] In FIG. 4, values at each point represent the mean.

Assay [3] relates to GM2 ganglioside storage in mouse brain. In words: GM2 ganglioside levels in midbrain by thin layer chromatography. Type of assay: in vivo. The conditions noted are these: 16-week midbrain, drug on its own or in addition to HEXB-HEXA. As to the method: as §1, with “storage. […]” for “storage.”
The subject of assay [4] is β-hexosaminidase A (HexA). In words: HexA activity in midbrain (4-MUGS assay). To be noted: 16-week midbrain, drug alone or in conjunction with HEXB-HEXA. The assay is classed as in vivo, mouse. As to the method: Animal tissues were collected at designated 16 week end points and long term humane end points. The humane end points were determined by either […] loss of peak body weight or an inability to right itself in 10 seconds. Euthanization was carried out via CO2 asphyxiation followed by cardiac puncture and perfusion with 10 mL of chilled PBS. For biochemical analysis sections of the forebrain, midbrain, hindbrain, cervical spinal cord, and lumbar spinal cord were collected along with the heart, lungs, liver, spleen, kidney, gonads, and a section skeletal muscle. These were all frozen immediately for further processing. […]
Total hexosaminidase activity and Hex activity was measured as previously described (Maegawa et al. 2007; Tropak et al. 2004). […] Total hexosaminidase activity was determined through the use of the 4-methylumbelliferyl-2-acetamido-2-deoxy-β-D-glucopyranoside (4-MUG) assay, whereas the HexA enzyme activity alone was determined through the use of the 4-methylumbelliferyl-7-6-sulfo-2-acetamido-2-deoxy-β-D-glucopyranoside (4-MUGS) assay. Beta galactosidase activity was determined through the use of 4-methylumbelliferyl-β-D-galactopyranoside assay. […] Briefly, the samples were incubated with the fluorogenic substrate at 37° C. for 1 hour, then read on the plate reader with excitation wavelength of 365 nm and an emission wavelength of 450 nm. […]

Where [5] appears, read: SD mice, drug alone 1 mg/kg/day oral gavage from eight weeks.

Regarding `CCN(CC)Cc1ccc2cc(COC(=O)Nc3ccc(C(=O)NO)cc3)ccc2c1` [ITF2357], the “Survival in conjunction with HEXB-HEXA” value with Sandhoff mouse (hexb-/-) [1] (SD mice) is on record as “significant increase in survival”. This compound also returned a Survival time with Sandhoff mouse (hexb-/-) [1] (setting [5]) of 119 days. Further, the “Mice that did not reach humane end point after 210 days” value in the assay with Sandhoff mouse (hexb-/-) [1] is listed as “two”. Further, the “Mobility in the open field test in conjunction with HEXB-HEXA” value in the assay on Sandhoff mouse (hexb-/-) [2] was “significant increase in mobility”. For the same compound, the “Additional decrease in GM2 ganglioside build-up” value in assay [3] was “No additional decrease”. Also, in assay [4], the “Further change in HexA activity” value was “no further increase or decrease”.

Turning to `COc1ccc2c(c1)c(CC(=O)O)c(C)n2C(=O)c1ccc(Cl)cc1` [indomethacin], in the assay on Sandhoff mouse (hexb-/-) [1] (SD mice), the “Survival in conjunction with HEXB-HEXA” value is recorded as “significant increase in survival”. The compound also showed a Survival time in the assay with Sandhoff mouse (hexb-/-) [1] (setting [5]) of 123.5 days. Also, the “Mice that did not reach humane end point after 210 days” value in the assay on Sandhoff mouse (hexb-/-) [1] was “two”. In addition, the “Mobility in the open field test in conjunction with HEXB-HEXA” value in the assay with Sandhoff mouse (hexb-/-) [2] is “significant increase in mobility”. Besides, in assay [3], the “Additional decrease in GM2 ganglioside build-up” value is given as “No additional decrease”. The “Further change in HexA activity” value in assay [4] is “no further increase or decrease”.

Regarding `CCc1nc(N)nc(N)c1-c1ccc(Cl)cc1` [pyrimethamine], the “Survival (mean)” value in the assay with Sandhoff mouse (hexb-/-) [1] (SD mice, drug alone 1 mg/kg/day oral gavage from eight weeks, no significant effect) is reported as 112.5 days.
